Patent US20120184493A1, “DERMAL FORMULATIONS OF DP2 RECEPTOR ANTAGONISTS” (PANMIRA PHARMACEEUTICALS, LLC, priority 2009, published 2012)

Key:
human DP2 receptor = biological target: T1, human DP2 receptor (Homo sapiens, UniProt Q9Y5Y4); experiment: DP2/CRTH2 radioligand binding assay using [3H]PGD2; conditions: membranes of HEK293 cells expressing recombinant human DP2, 1 nM [3H]PGD2; read-out: hDP2
T1 construct: expressed in transfected cells
T1 sequence (Q9Y5Y4 1-395): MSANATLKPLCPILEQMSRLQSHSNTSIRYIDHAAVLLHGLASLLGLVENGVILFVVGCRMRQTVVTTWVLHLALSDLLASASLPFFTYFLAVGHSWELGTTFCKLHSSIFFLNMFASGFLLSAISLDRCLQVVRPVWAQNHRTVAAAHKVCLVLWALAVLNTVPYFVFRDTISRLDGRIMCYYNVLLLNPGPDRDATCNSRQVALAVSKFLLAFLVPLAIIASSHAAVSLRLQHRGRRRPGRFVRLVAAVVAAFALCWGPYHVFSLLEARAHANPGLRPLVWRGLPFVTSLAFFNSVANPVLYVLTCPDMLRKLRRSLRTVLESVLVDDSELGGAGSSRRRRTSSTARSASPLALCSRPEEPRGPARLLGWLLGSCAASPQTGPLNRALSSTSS
Description: The ability of a compound to bind to the human DP2 receptor is assessed via a radioligand binding assay using [^3H]PGD2. HEK293 cells stably expressing recombinant human DP2 are resuspended in 10 mM Hepes, 7.4 containing 1 mM DTT, lysed and centrifuged at 75,000×g to pellet the membranes. The membranes are resuspended in 10 mM Hepes, 7.4 containing 1 mM DTT and 10% glycerol to approximately 5 mg protein/ml. Membranes (2-10 μg protein/well) are incubated in 96-well plates with 1 nM [^3H]PGD2 and test compound in Assay Buffer (50 mM Hepes, 10 mM MnCl2, 1 mM EDTA, plus or minus 0.2% human serum albumin, pH 7.4) for 60 minutes at room temperature. The reactions are terminated by rapid filtration through Whatman GF/C glass fibre filter plates. The filter plates were pre-soaked in 0.33% polythylenimine for 30 minutes at room temperature then washed in Wash Buffer (50 mM Hepes, 0.5 M NaCl pH 7.4) prior to harvesting. After harvesting, the filter plates are washed 3 times with 1 ml cold Wash Buffer then dried. Scintillant is then added to the plates and the radioactivity retained on the filters is determined on a Packard TopCount (Perkin Elmer). Specific binding is determined as total radioactive binding minus non-specific binding in the presence of 10 μM PGD2. IC50s were determined using GraphPad prism analysis of drug titration curves.

human DP1 receptor = biological target: T2, human DP1 receptor (Homo sapiens, UniProt Q13258); experiment: DP1 radioligand membrane binding assay using [3H]BWA868C; conditions: human platelet membranes, 2 nM [3H]BWA868C; read-out: hDP1
T2 construct: tissue Biological Specialty Corporation; host or cells: human platelets, membrane preparation
T2 sequence (Q13258 1-359): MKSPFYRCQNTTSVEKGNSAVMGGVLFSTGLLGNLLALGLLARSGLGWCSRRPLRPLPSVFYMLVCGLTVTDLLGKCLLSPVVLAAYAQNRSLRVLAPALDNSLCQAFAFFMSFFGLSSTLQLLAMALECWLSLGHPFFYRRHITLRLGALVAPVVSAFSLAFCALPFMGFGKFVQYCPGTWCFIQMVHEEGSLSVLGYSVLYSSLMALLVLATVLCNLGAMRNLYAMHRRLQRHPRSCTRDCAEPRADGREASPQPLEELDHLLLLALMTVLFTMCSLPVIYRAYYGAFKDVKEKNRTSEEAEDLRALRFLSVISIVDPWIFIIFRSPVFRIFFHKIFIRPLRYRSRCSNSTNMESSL
Description: The ability of a compound to bind to the human DP1 receptor was evaluated via a radioligand membrane binding assay using the DP1 selective synthetic ligand [^3H]BWA868C. Packed human platelets (Biological Specialty Corporation), were resuspended in 6 volumes of Hepes/HBSS buffer (10 mM Hepes, 1 mM DTT in Hanks Balanced Salt Solution (HBSS)), lysed and centrifuged at 75,000×g to pellet the membranes. Membranes were resuspended in Hepes/HBSS buffer to approximately 12 mg protein/ml. Membranes (20 μg protein/well) are incubated in 96-well plates with 2 nM [^3H]BWA868C and test compound in Assay Buffer (50 mM Hepes, 10 mM MnCl2, 1 mM EDTA, plus or minus 0.2% human serum albumin, pH 7.4) for 60 minutes at room temperature. The reactions are terminated by rapid filtration through Whatman GF/C glass fibre filter plates. The filter plates were pre-soaked in 0.33% polethylenimine for 30 minutes at room temperature then washed in Wash Buffer (50 mM Hepes, 0.5 M NaCl pH 7.4) prior to harvesting. After harvesting, the filter plates are washed 3 times with 1 ml cold Wash Buffer then dried. Scintillant is then added to the plates and the radioactivity retained on the filters is determined on a Packard TopCount (Perkin Elmer). Specific binding is determined as total radioactive binding minus non-specific binding in the presence of 10 μM BW A868C. IC50s were determined using GraphPad prism analysis of drug titration curves.

SMILES | IC50 (human DP2 receptor) [µM] | IC50 (human DP1 receptor) [µM]
CCN(Cc1cc(C(F)(F)F)ccc1-c1cncc(CC(=O)O)c1)C(=O)OCc1ccccc1 [(5-{2-[(N-benzyloxycarbonyl-N-ethyl-amino)-methyl]-4-trifluoromethyl-phenyl}-pyridin-3-yl)-acetic acid] | < 0.3 | > 1
CCOc1ccc(-c2ccc(-c3cc(CC(=O)O)ccc3OC)c(CN(CC)C(=O)C3CC3)c2)cn1 [[2′-[(N-cyclopropanecarbonyl-N-ethyl-amino)-methyl]-4′-(6-ethoxy-pyridin-3-yl)-6-methoxy-biphenyl-3-yl]-acetic acid] | – | > 1
COc1ccc(CC(=O)O)cc1Oc1ccc(NC(=O)C(C)(C)C)cc1CSC(C)(C)C [{3-[2-tert-Butylsulfanylmethyl-4-(2,2-dimethyl-propionylamino)-phenoxy]-4-methoxy-phenyl}-acetic acid] | < 0.3 | > 1
CN(C1CCc2c(c3ncccc3n2CC(=O)O)C1)S(=O)(=O)c1ccc(F)cc1 (stereo not shown) [{8-[(4-fluoro-benzenesulfonyl)-methyl-amino]-6,7,8,9-tetrahydro-pyrido[3,2-b]indol-5-yl}-acetic acid] | < 0.3 | > 1
